According to the OligoGym collection:
After the bases stand the sugars from the 5' end (letter, count) and the backbone: PS all phosphorothioate, else s phosphorothioate and o phosphodiester by linkage. Methylation of C is not given here. l = locked nucleic acid (LNA); d = 2'-deoxy (DNA)

Biological target: SNHG14
Conditions: ASO

Sequence	target mRNA inhibition (Human Neuronal Cell, 7.5 µM)	target mRNA inhibition (Human Neuronal Cell, 0.2 µM)	target mRNA inhibition (Human Neuronal Cell, 1 µM)	also measured
AGTTCTACTATACTTTCC (sugars l1 d2 l1 d12 l2, PS)	43%	–	–	–
CAGATAACTCTAAACC (sugars l4 d10 l2, PS)	–	22%	16%	–
TACATCTCATACTTGCT (sugars l4 d11 l2, PS)	–	–	–	target mRNA inhibition (Mouse Primary Neuronal Cell, 0.005 µM): 95.3%
CTGTATACACCATCCCA (sugars l2 d2 l1 d10 l2, PS)	60%	–	–	–
TGTTTATACCCTTTCCAA (sugars lldlddddddddddldll, PS)	57%	–	–	–
ACATGTCCCTTTATAT (sugars l2 d12 l2, PS)	–	-9%	-2%	target mRNA inhibition (Human Neuronal Cell, 5 µM): 15%
CTAAGCTCCATATTTA (sugars l4 d10 l2, PS)	–	21%	42%	–
ATTCTCAATTGCACTT (sugars l4 d10 l2, PS)	–	49%	58%	–
AACTGTTTATACCCTTT (sugars l4 d11 l2, PS)	–	51%	55%	–
ATCTTTCCATTTATTTCCA (sugars lddddldddddddddldll, PS)	31%	–	–	–
TTATAGCCATTCTATCT (sugars ldlddddddddlldlll, PS)	43%	–	–	–
CCATTTATTTCCATTTATT (sugars ldldlddddddddldldll, PS)	55%	–	–	–
TTTTTTTCTTACTATCTTCA (sugars ldddllddddddddddldll, PS)	50%	–	–	–
TATCTTTCCATTTATTTCCA (sugars l1 d2 l1 d14 l2, PS)	45%	–	–	–
ATCTCAACTACCATTT (sugars l4 d10 l2, PS)	–	67%	67%	–
ACTGTTTATACCCTTTCC (sugars lddldlddddddddddll, PS)	53%	–	–	–
TTGATTCAATTCCCTTA (sugars lldddddddddldldll, PS)	61%	–	–	–
TAGACTAATCCTCTTA (sugars l4 d10 l2, PS)	–	48%	56%	–
TTCTGTATACACCATCC (sugars ldldlddddddddddll, PS)	62%	–	–	–
ACTCTTTAGATTCATC (sugars l2 d10 l4, PS)	–	53%	44%	–
TTACACATGTATATCC (sugars l3 d10 l3, PS)	–	41%	36%	–
ATTTACACTTAATTATACTT (sugars llddlldddddddlllddll, PS)	36%	–	–	–

Sequence	target mRNA inhibition (Human Neuronal Cell, 7.5 µM)	target mRNA inhibition (Human Neuronal Cell, 0.2 µM)	target mRNA inhibition (Human Neuronal Cell, 1 µM)	also measured
ATCTCATGACCACCTAA (sugars l3 d11 l3, PS)	–	54%	56%	–
TTATAGCCATTCTATCT (sugars l1 d1 l1 d9 l5, PS)	55%	–	–	–
TGTCTATTCTCTTCATT (sugars l4 d11 l2, PS)	–	37%	30%	–
CTGTTTATACCCTTTCCA (sugars ldlddddddddddlddll, PS)	55%	–	–	–
CTGTATACACCATCCCA (sugars l1 d14 l2, PS)	49%	–	–	–
AAAATTATTTATACACCATC (sugars lllldlddddddddldllll, PS)	59%	–	–	–
CACACCTATTATATAAT (sugars l4 d11 l2, PS)	–	2%	18%	–
GTTAACCTATATTTCA (sugars l4 d10 l2, PS)	–	15%	6%	–
TATACCTTTCTTTAACCCTT (sugars lddddlddddddddddldll, PS)	61%	–	–	–
TTATAGCCATTCTATCT (sugars l2 d13 l2, PS)	48%	–	–	–
GTTTATACCCTTTCCAAT (sugars ldldldddddddllddll, PS)	39%	–	–	–
ATATTGATTCAATTCCC (sugars l2 d9 l2 d1 l3, PS)	66%	–	–	–
TCTTACTCTGACTTTCCA (sugars l2 d14 l2, PS)	–	56%	65%	–
ATTTACACTTAATTATACTT (sugars ldddldldddddddllllll, PS)	46%	–	–	–
ATCTTTCCATTTATTTCCA (sugars l1 d1 l1 d14 l2, PS)	41%	–	–	–
AGCTTTTAACCAGAGTGGC (sugars l1 d16 l2, PS)	56%	–	–	–
TAGCCTACTTTAATAT (sugars l4 d10 l2, PS)	–	25%	11%	–
CCCACCAAAGGATATATT (sugars l3 d12 l3, PS)	–	-28%	33%	target mRNA inhibition (Human Neuronal Cell, 5 µM): 16%
TATTGATTCAATTCCCT (sugars l1 d1 l3 d10 l2, PS)	71%	–	–	–
ATCTCATGACCACCTAA (sugars l1 d3 l1 d8 l4, PS)	58%	–	–	–
GAAAATCTCAACTACCATT (sugars l5 d12 l2, PS)	60%	–	–	–
TTTACTCTGCAATACA (sugars l2 d10 l4, PS)	–	45%	60%	–
